Laboratory results published in EPA's ToxValDB 9.5.
Where “and” joins values, the source holds several entries; their conditions need not be identical. Equal values may be shown once.

Assays:
Rattus norvegicus [1] = conditions: oral, M/F
Mus musculus = conditions: short-term, duration: 28 days, oral, gavage, F, B6C3F1
Rattus norvegicus [2] = conditions: subchronic, duration: 56 days, oral, diet, M, Sprague-Dawley
Rattus norvegicus [3] = conditions: oral
Rattus norvegicus [4] = conditions: acute; oral; gavage
[5] = reproduction developmental, Increased incidence of hepatocellular changes including fatty change and vacuolation (M) increased susceptibility to stress factors (F)
[6] = Liver: Liver Weight, Relative + Thymus: CD8+ Cell Count
[7] = Spleen: Spleen Weight, Relative + Whole Body: Body Weight Change
[8] = subchronic, gavage, M, Sprague-Dawley
[9] = subchronic, duration: 90 days, diet, increased male spleen weight and che depression (females)
[10] = chronic, duration: 91 days, gavage, M/F, Wistar, Blood Chemistry: Ca increase, TP increase, Glob increase, TG increase, Glu decrease + Absolute Organ Weight: Liver increase, Kidney increase…
[11] = short-term, duration: 28 days, gavage, M, Sprague-Dawley, Clinical Observation: Salivation Orange urinelocomotor activity decreaserespiratory rate decrease, Incomplete eye opening Staining around …

CC(C)C(O)(c1ccc(OC(F)(F)F)cc1)c1cncnc1 (stereo not given) [Flurprimidol]
LEL (Rattus norvegicus [1]; [5]): 7.3 mg/kg-day
NOEL (Rattus norvegicus [1]; [5]): 1.8 mg/kg-day

CCNS(=O)(=O)C(F)(F)C(F)(F)C(F)(F)C(F)(F)C(F)(F)C(F)(F)C(F)(F)C(F)(F)F [N-Ethylperfluorooctanesulfonamide]
LEL (Mus musculus; [6]): 1 mg/kg-day
NEL (Mus musculus; [6]): 0.3 mg/kg-day
NEL (Mus musculus; Spleen: B Cell Proliferation + Spleen: B220+ Cell Count + Spleen: CD4-/CD8- Cell Count + Spleen: CD4+ Cell Count + Spleen: CD4+/CD8+ Cell …): 10 mg/kg-day
LEL (Mus musculus; Spleen: Plaque Forming Cell (PFC) Response + Uterus: Uterus Weight, Relative): 0.3 mg/kg-day
LEL (Mus musculus; [7]): 10 mg/kg-day
NEL (Mus musculus; [7]): 3 mg/kg-day
LEL (Rattus norvegicus [2]; Whole Body: Body Weight Change): 6.82 mg/kg-day and 5.7 mg/kg-day
NEL (Rattus norvegicus [2]; Whole Body: Clinical Observations): 6.82 mg/kg-day and 5.7 mg/kg-day

CCCCCCCCCCCCCCCCCC(=O)OCCOC(=O)CCCCCCCCCCCCCCCCC [Octadecanoic acid, 1,2-ethanediyl ester]
NOAEL (Rattus norvegicus [3]; [8]): 1000 mg/kg-day
NOEL (Rattus norvegicus [3]; [8]): 1000 mg/kg-day
LD50 (Rattus norvegicus [4]): > 10000 mg/kg

CC(C)OC(=O)Nc1ccccc1 [Propham]
LEL (Rattus norvegicus [1]; [9]): 100 mg/kg-day
NOEL (Rattus norvegicus [1]; [9]): 50 mg/kg-day

c1ccc(P(c2ccccc2)c2ccccc2)cc1 [Triphenylphosphine]
NOAEL (Rattus norvegicus [3]; [10]): 60 mg/kg-day
NOEL (Rattus norvegicus [3]; [10]): 6 mg/kg-day

O=[N+]([O-])C(Br)=Cc1ccccc1 [beta-Bromo-beta-nitrostyrene]
NOEL (Rattus norvegicus [3]; subchronic, gavage, M/F, Fischer 344, Deaths + Body Weight Changes: decrease>150 af>>300 + Hematology: RBC increase, WBC increase, Seg increase, Ret increase + Blood Chemistry: …): < 37 mg/kg-day

CC(=O)/C=C/C1=C(C)CCCC1(C)C [beta-Ionone]
NOAEL (Rattus norvegicus [3]; subchronic, duration: 90 days, diet, M/F, Wistar, Urinalysis: Ket increase, Uro increase, Transitional epithelial cell increase, Epithelial cell casts + Blood Chemistry: gamma-GTP increase, …): 96 mg/kg-day

COc1ccc([N+](=O)[O-])cc1 [p-Nitroanisole]
NOAEL (Rattus norvegicus [3]; [11]): 100 mg/kg-day
NOEL (Rattus norvegicus [3]; [11]): < 100 mg/kg-day

N#Cc1c(Cl)c(Cl)c(C#N)c(Cl)c1Cl [p-Phthalodinitrile, tetrachloro-]
NOEL (Rattus norvegicus [3]; subchronic, gavage, Sprague-Dawley): 1000 mg/kg-day

CC(C)(C)S [t-Butyl mercaptan]
NOEL (Rattus norvegicus [3]; subchronic, gavage, M, CD(SD), Clinical Observation: Salivation + Body Weight Changes: decrease + Food Consumption: decrease + Hematology: RBC decrease, HGB decrease, HCT …): < 10 mg/kg-day
NOEL (Rattus norvegicus [3]; subchronic, gavage, M, Sprague-Dawley, Body Weight Changes: decrease200 + Hematology: MCHC decrease, APTT increase, RBC decrease, Hgb decrease, Hct decrease, Plt increase, PT …): < 10 mg/kg-day

ClC1=C(Cl)[C@]2(Cl)[C@H]3[C@H]([C@H](Cl)C(Cl)[C@@H]3Cl)[C@@]1(Cl)C2(Cl)Cl (stereo partly drawn) [trans-Nonachlor]
NOEL (Rattus norvegicus [3]; subchronic, diet, M/F, Sprague-Dawley, Blood Chemistry: Pi increase, A/G decrease, Thyroxine increasetake decrease, T4 increase + Absolute Organ Weight: Liver increase + Relative …): < 0.48 mg/kg-day
